In publication PMC3258498 (Journal of Medicinal Chemistry, 2011):
Values joined by “and” are separate entries in the source; they are usually repeats but may differ in a detail not shown here. Equal entries are not always repeated. Where two headings read alike, the source gives them in different places.

Key:
[1] = tested on: WT HIV-1; details: cited from earlier work
[2] = tested on: HIV-1 Y181C variant; details: read-out: activity for the Y181C-containing variant; cited from earlier work
[3] = tested on: IIIB strain of HIV-1 (WT); test: Anti-HIV-1 activity in infected MT-2 human T-cells, MTT colorimetric method; assay type: cell-based; details: for gain in potency: in going from 1
[4] = tested on: HIV-1 Y181C variant; details: read-out: EC50 Y181C; Literature data, MT4 cells; cited from earlier work
[5] = tested on: HIV-1 K103N/Y181C variant; details: read-out: EC50 K103N/Y181C; Literature data, MT4 cells; cited from earlier work
[6] = read-out: activity for WT HIV-1

Cc1cc(/C=C/C#N)cc(C)c1Nc1ccnc(Nc2ccc(C#N)cc2)n1 [compound 39, 4-[[4-[[4-[(1E)-2-cyanoethenyl]-2,6-dimethylphenyl]amino]-2-pyrimidinyl]amino]benzonitrile]
EC50 [1, 6]: < 5 nM
EC50 [2]: < 5 nM

O=c1ccn(CCOc2ccc(Cl)cc2Cc2c(Cl)cccc2Cl)c(=O)[nH]1 [compound 11]
gain in potency [3]: ca. 15 fold

Cc1ccnc2c1NC(=O)c1cccnc1N2C1CC1 [nevirapine]
EC50 [4]: > 10000 nM
EC50 [5]: > 10000 nM

N#Cc1ccc(Oc2cc(Cl)ccc2Cl)c(OCCc2ccncc2)c1 [compound 33]
worsening of the EC50 value ([3]; relative to 31): 18 fold

CCc1c(C)[nH]c(=O)c(I)c1Oc1cccc(/C=C/C#N)c1 [compound 38]
EC50 [1, 6]: < 5 nM
EC50 [2]: < 5 nM

Cc1cc(C)cc(Oc2c(CSCc3ccco3)c(C)[nH]c(=O)c2I)c1 [compound 3]
EC50 ([1]; read-out: activity towards WT HIV-1): 1 to 10 nM and 2 nM

O=c1ccn(CCOc2ccc(Cl)cc2Cc2cc(Cl)ccc2Cl)c(=O)[nH]1 [compound 10]
gain in potency [3]: ca. 15 fold
